# Patent US20250228865A1, “COMPOUNDS FOR ENHANCING READ THROUGH OF GENES CONTAINING PREMATURE TERMINATION CODONS AND METHODS FOR MAKING AND USING THE SAME” (Sanofi US Services Inc., priority 2022, published 2025)
# Tests used:
# [1] = tested on: recombinant human CFTR carrying the premature stop codon (PTC) mutation G542X; test: CFTR-PTC mutant translation readthrough, Nanoluc tagged CFTR luminescence (G542X cell line); type: cell-based; settings: in combination with G418, G542X cell line; for CFTR G542X ACTIVITY Fold 10 μM G-418: fold over 10 μM G-418; for EC50: 16HBE cells
# Procedure, shortened: (§1)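 Readthrough is the 48 h compound-induced luminescence increase scaled to that of maximal G418 (125-250 μM). Compounds run from 50 μM final in 2-fold steps, ±10 μM G418, on 16HBE lines carrying Nanoluc-tagged CFTR G542X (extracellular loop 4 tag) or R1162X (C-terminal tag), with 3 μM VX-809 present.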
# [2] = tested on: recombinant human CFTR carrying the premature stop codon (PTC) mutation R1162X; test: CFTR-PTC mutant translation readthrough, Nanoluc tagged CFTR luminescence (R1162X cell line); type: cell-based; settings: for CFTR R1162X ACTIVITY Fold 10 μM G-418: fold over 10 μM G-418, in combination with G418; for EC50: in combination with G418, 16HBE cells, read-out: CFTR R1162X ACTIVITY EC50
# Procedure, shortened: as §1
SMILES,CFTR G542X ACTIVITY Fold 10 μM G-418 [1],EC50 [1] [µM],CFTR R1162X ACTIVITY Fold 10 μM G-418 [2],EC50 [2] [µM]
"NCC1CCCN(c2ncc(OCc3c(Cl)cccc3Cl)cn2)C1 (stereo not shown) [[1-[5-[(2,6-dichlorophenyl)methoxy]pyrimidin-2-yl]-3-piperidyl]methanamine]",A′ (A′ = ≥10X),< 1,A′ (A′ = ≥10X),< 1
"O[C@@H]1CN(c2ncc(OCc3c(Cl)cccc3Cl)cn2)C[C@@H]1O [(3R,4S)-1-[5-[(2,6-dichlorophenyl)methoxy]pyrimidin-2-yl]pyrrolidine-3,4-diol]",A′ (A′ = ≥10X),1 to 10,A′ (A′ = ≥10X),> 10
"CC(O)C1CN(c2ccc(OCc3c(Cl)cccc3Cl)cc2)C(=O)O1 (stereo not shown) [3-[4-[(2,6-dichlorophenyl)methoxy]phenyl]-5-(1-hydroxyethyl)oxazolidin-2-one]",A′ (A′ = ≥10X),1 to 10,B′ (B′ = ≥5X to <10X),> 10
"NC(=O)C1CCN(c2ncc(OCc3c(Cl)cccc3Cl)cn2)C1 (stereo not shown) [1-[5-[(2,6-dichlorophenyl)methoxy]pyrimidin-2-yl]pyrrolidine-3-carboxamide]",A′ (A′ = ≥10X),1 to 10,A′ (A′ = ≥10X),1 to 10
"NCc1cn(-c2ccc(OCc3c(Cl)cccc3Cl)cn2)nn1 [[1-[5-[(2,6-dichlorophenyl)methoxy]-2-pyridyl]triazol-4-yl]methanamine]",A′ (A′ = ≥10X),1 to 10,A′ (A′ = ≥10X),1 to 10
"N#Cc1ccn(-c2ncc(OCc3c(Cl)cccc3Cl)cn2)n1 [1-[5-[(2,6-dichlorophenyl)methoxy]pyrimidin-2-yl]pyrazole-3-carbonitrile]",A′ (A′ = ≥10X),1 to 10,B′ (B′ = ≥5X to <10X),< 1
Cc1cccc(C(F)(F)F)c1COc1ccc(-n2cc(CO)nn2)nc1,A′ (A′ = ≥10X),< 1,A′ (A′ = ≥10X),< 1
"FC(F)(F)c1cccc(Cl)c1COc1cnc(-n2cncn2)nc1 [5-[[2-chloro-6-(trifluoromethyl)phenyl]methoxy]-2-(1,2,4-triazol-1-yl)pyrimidine]",A′ (A′ = ≥10X),< 1,A′ (A′ = ≥10X),1 to 10
"OCCN1CCN(c2ncc(OCc3c(Cl)cccc3Cl)cn2)CC1 [2-[4-[5-[(2,6-dichlorophenyl)methoxy]pyrimidin-2-yl]piperazin-1-yl]ethanol]",A′ (A′ = ≥10X),1 to 10,A′ (A′ = ≥10X),1 to 10
O=C1N[C@H](CO)CN1c1ccc(OCc2c(Cl)cccc2Cl)cn1,A′ (A′ = ≥10X),< 1,A′ (A′ = ≥10X),< 1
"OCc1nnc(-c2ccc(OCc3c(Cl)cccc3Cl)cc2)o1 [[5-[4-[(2,6-dichlorophenyl)methoxy]phenyl]-1,3,4-oxadiazol-2-yl]methanol]",A′ (A′ = ≥10X),< 1,A′ (A′ = ≥10X),< 1
Cc1cccc(C(F)(F)F)c1COc1cnc(N2CCNC(=O)C2)nc1 [4-[5-[[2-methyl-6-(trifluoromethyl)phenyl]methoxy]pyrimidin-2-yl]piperazin-2-one],A′ (A′ = ≥10X),< 1,A′ (A′ = ≥10X),< 1
Cc1cccc(C(F)(F)F)c1COc1cnc(N2CCC(N)CC2)nc1,A′ (A′ = ≥10X),< 1,A′ (A′ = ≥10X),1 to 10
